Calls of active or inactive are those of the source. The rule behind the calls is not given here.
Experiments:
Histone deacetylase 1 [1] = molecular target: T1, Histone deacetylase 1 (Homo sapiens, UniProt Q13547); test: Inhibition of full length C-terminal His/FLAG-tagged human HDAC1 expressed in baculovirus expression system using ZMAL as substrate incubated for 90 mins by fluorescence assay
[2] = molecular target: T2, Protein deacetylase HDAC6 (Homo sapiens, UniProt Q9UBN7); test: Inhibition of full length N-terminal GST-tagged human HDAC6 expressed in baculovirus expression system using ZMAL as substrate incubated for 90 mins by fluorescence assay
T2 sequence (Q9UBN7 whole entry): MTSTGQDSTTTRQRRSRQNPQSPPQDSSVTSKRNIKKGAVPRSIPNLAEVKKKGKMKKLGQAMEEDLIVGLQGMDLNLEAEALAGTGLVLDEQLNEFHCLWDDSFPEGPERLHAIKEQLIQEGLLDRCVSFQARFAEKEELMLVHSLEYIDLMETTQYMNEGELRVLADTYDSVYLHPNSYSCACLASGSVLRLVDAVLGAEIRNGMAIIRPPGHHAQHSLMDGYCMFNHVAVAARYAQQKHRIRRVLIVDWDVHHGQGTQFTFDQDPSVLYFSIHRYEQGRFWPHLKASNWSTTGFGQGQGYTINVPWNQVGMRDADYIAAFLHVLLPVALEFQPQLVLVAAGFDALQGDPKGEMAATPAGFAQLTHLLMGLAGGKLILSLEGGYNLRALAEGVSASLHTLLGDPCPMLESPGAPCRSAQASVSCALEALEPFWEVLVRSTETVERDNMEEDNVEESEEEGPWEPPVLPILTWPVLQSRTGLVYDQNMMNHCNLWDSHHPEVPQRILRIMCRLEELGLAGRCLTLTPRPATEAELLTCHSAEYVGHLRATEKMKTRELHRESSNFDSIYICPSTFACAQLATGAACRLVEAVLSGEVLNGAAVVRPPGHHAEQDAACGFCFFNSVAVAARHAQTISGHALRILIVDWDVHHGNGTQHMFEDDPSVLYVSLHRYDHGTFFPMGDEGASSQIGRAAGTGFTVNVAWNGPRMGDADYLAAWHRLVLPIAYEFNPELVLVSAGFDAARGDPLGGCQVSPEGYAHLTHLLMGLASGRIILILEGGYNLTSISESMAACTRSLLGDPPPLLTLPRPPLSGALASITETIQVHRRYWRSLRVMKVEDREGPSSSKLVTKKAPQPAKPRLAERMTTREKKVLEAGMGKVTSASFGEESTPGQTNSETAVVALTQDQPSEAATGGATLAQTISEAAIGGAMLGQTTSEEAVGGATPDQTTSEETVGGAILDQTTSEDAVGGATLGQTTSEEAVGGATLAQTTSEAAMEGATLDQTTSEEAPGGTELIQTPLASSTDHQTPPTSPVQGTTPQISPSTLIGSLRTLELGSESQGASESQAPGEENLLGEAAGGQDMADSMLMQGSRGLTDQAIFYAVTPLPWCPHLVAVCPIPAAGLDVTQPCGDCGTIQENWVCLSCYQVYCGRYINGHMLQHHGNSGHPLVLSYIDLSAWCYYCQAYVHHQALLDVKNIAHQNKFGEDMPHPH

Homo sapiens = species on record: Homo sapiens; test: Selectivity ratio of IC50 for full length C-terminal His/FLAG-tagged human HDAC1 expressed in baculovirus expression system to IC50 full length N-terminal GST-tagged human HDAC6 expressed in baculovirus expression system
Histone deacetylase 8 = molecular target: T3, Histone deacetylase 8 (Homo sapiens, UniProt Q9BY41); test: Inhibition of human recombinant HDAC8 expressed in Escherichia coli using Fluor de Lys substrate preincubated for 15 mins followed by substrate addition and measured after 60 mins by fluorescence assay
T3 sequence (Q9BY41 whole entry): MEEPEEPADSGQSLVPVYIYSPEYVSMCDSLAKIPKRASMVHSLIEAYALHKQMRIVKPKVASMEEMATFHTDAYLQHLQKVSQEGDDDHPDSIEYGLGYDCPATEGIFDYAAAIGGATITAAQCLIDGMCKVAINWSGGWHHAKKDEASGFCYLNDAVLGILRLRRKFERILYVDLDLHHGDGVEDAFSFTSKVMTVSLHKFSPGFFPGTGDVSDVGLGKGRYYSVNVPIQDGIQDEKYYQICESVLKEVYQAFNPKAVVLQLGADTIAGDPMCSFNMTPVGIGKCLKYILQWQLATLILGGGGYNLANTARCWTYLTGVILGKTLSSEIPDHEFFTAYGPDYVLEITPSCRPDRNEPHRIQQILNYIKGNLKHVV

Ca9-22 = test: Antiproliferative activity against human Ca9-22 cells assessed as reduction in cell viability measured after 48 hrs by alamar blue dye based spectrofluorometry; type: functional; conditions: Ca9-22, 48 h
[3] = Antiproliferative activity against human TR-146 cells assessed as reduction in cell viability measured after 48 hrs by alamar blue dye based spectrofluorometry; type: functional; conditions: TR146, 48 h
[4] = Antiproliferative activity against human U266B cells assessed as reduction in cell viability measured after 24 to 48 hrs by alamar blue dye based fluorescence assay; type: functional
KYSE-520 cell line = test: Antiproliferative activity against human KYSE520 cells assessed as reduction in cell viability measured after 48 hrs by alamar blue dye based spectrofluorometry; type: functional; conditions: KYSE-520, 48 h
OE33 = test: Antiproliferative activity against human OE33 cells assessed as reduction in cell viability measured after 72 hrs by MTT assay; type: functional, cell-based; conditions: OE33, 72 h
NB-4 [5] = test: Cell cycle arrest in human NB-4 cells at 5 to 10 uM measured after 24 to 48 hrs by propidium iodide staining based flow cytometry; type: functional; conditions: dose microM 5-10, time hrs 24-48
[6] = molecular target: T4, Protein deacetylase HDAC6 (Homo sapiens) (UniProt Q9UBN7); test: Inhibition of HDAC6 in human NB-4 cells assessed as increase in tubulin acetylation at 10 uM measured after 24 to 48 hrs by Western blot analysis; type: cell-based; conditions: time hrs 24-48
T4 sequence (whole entry): T2 sequence (Q9UBN7 whole entry)

Histone deacetylase = test: Inhibition of HDAC in human NB-4 cells assessed as effect on histone acetylation at 10 uM measured after 24 to 48 hrs by Western blot analysis; type: cell-based; conditions: nb-4, 10 µM, time 24-48 hrs
NB-4 [7] = test: Induction of apoptosis in human NB-4 cells assessed as increase in cleaved PARP expression at 10 uM measured after 24 to 48 hrs by Western blot analysis; type: functional, cell-based; conditions: time hrs 24-48
Histone deacetylase 1 [8] = molecular target: T1, Histone deacetylase 1; test: Inhibition of full length C-terminal His/FLAG-tagged human HDAC1 expressed in baculovirus expression system at 1 uM using ZMAL as substrate incubated for 90 mins by fluorescence assay relative to control
[9] = molecular target: T4, Protein deacetylase HDAC6 (Homo sapiens); test: Inhibition of full length N-terminal GST-tagged human HDAC6 expressed in baculovirus expression system at 1 uM using ZMAL as substrate incubated for 90 mins by fluorescence assay relative to control
[10] = molecular target: T4, Protein deacetylase HDAC6 (Homo sapiens); test: Inhibition of HDAC6 in human MEC1 cells assessed as reduction in STAT3 phosphorylation measured after 30 hrs by immunoblot assay; type: cell-based
[11] = Cytotoxicity against mouse NIH3T3 cells assessed as reduction in cell viability measured after 24 hrs by neutral red uptake assay; type: cell-based; conditions: read-out: TC50
U-937 = test: Cell cycle arrest in human U-937 cells assessed as increase in accumulation at pre-G1 phase at 10 uM measured after 48 hrs by propidium iodide staining based flow cytometry; type: functional
NB-4 [12] = test: Cell cycle arrest in human NB-4 cells at 5 to 10 uM measured after 48 hrs by propidium iodide staining based flow cytometry; type: functional; conditions: dose microM 5-10, time 48.0 hrs
U266B = test: Induction of apoptosis in human U266B cells at 25 to 50 uM measured after 48 hrs by Annexin-V/propidium iodide staining based flow cytometry; type: functional, cell-based; conditions: dose microM 25-50, time 48.0 hrs
[13] = molecular target: T4, Protein deacetylase HDAC6 (Homo sapiens); test: Inhibition of HDAC6 in human U-266 cells assessed as reduction in STAT3 phosphorylation measured after 4 to 48 hrs by immunoblot assay; type: cell-based; conditions: time hrs 4-48
[14] = Mutagenicity in Salmonella typhimurium TA100 at 24 to 40 uM measured after 90 mins in absence of S9 fraction by Ames test; type: toxicity; conditions: salmonella enterica subsp. enterica serovar typhimurium, s9, 1.5 h, dose 24-40 µM
[15] = Mutagenicity in Salmonella typhimurium TA100 at 24 to 40 uM measured after 90 mins in presence of S9 fraction by Ames test; type: toxicity, subcellular; conditions: salmonella enterica subsp. enterica serovar typhimurium, s9, 1.5 h, dose 24-40 µM

T1 sequence (Q13547 whole entry): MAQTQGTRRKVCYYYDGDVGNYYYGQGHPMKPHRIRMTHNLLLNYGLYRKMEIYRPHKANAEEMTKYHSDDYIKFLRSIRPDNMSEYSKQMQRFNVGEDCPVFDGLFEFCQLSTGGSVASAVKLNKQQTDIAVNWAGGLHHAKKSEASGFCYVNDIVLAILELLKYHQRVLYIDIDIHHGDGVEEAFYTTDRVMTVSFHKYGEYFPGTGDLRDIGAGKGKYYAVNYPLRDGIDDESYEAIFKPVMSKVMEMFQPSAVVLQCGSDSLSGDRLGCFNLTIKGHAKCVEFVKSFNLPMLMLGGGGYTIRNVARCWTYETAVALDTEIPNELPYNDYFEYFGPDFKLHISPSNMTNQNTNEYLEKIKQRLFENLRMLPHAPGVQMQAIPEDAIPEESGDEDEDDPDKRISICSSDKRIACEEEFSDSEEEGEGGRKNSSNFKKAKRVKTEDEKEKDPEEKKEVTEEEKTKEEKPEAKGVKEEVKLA

Structure (SMILES) | IC50 (Histone deacetylase 1 [1]) | IC50 [2] | Ratio IC50 (Homo sapiens) | IC50 (Histone deacetylase 8) | inhibition [6] | inhibition (INH) (Histone deacetylase) | IC50 (Ca9-22) | IC50 [3] | IC50 [4] | IC50 (OE33) | Activity (NB-4 [7]) | also measured
O=C(NO)c1ccc(CN2CCC3(CC2)CN(C(=O)c2ccccc2)c2c(-c4ccccc4)cccc23)cc1 | 4.7 µM | 0.465 µM | 10 | – | – | – | – | – | – | – | – | –
O=C(NO)c1ccc(CN2CCC3(CC2)CN(Cc2ccccc2)c2c(-c4ccccc4)cccc23)cc1 | – | – | – | – | – | – | – | – | – | – | – | inhibition (Histone deacetylase 1 [8]): 2.9%; inhibition [9]: 29.7%
O=C(NO)c1ccc(COC(=O)N2CCC3(CC2)CN(Cc2ccccc2)c2ccccc23)cc1 | 6.8 µM | 0.0485 µM | 140 | 3.19 µM | Active | Not Active | > 1000 µM | 133 µM | 20.2 µM | 37.8 µM | Active | inhibition [10]: Dose-dependent effect; CC50 at 24 h [11]: 40 µM; Activity (U-937): Active; Activity (NB-4 [12]): Active; Activity (U266B): Active; inhibition [13]: Dose-dependent effect; Activity [14]: Toxic; Activity [15]: Toxic

Further lines, with some results ahead:

IC50 (Histone deacetylase 1 [1]) | IC50 [2] | Ratio IC50 (Homo sapiens) | IC50 (Histone deacetylase 8) | inhibition [6] | inhibition (INH) (Histone deacetylase) | Structure (SMILES) | IC50 (Ca9-22) | IC50 [3] | IC50 [4] | IC50 (OE33) | Activity (NB-4 [7]) | also measured
3.6 µM | 0.11 µM | 33 | 2.48 µM | – | – | O=C(NO)c1ccc(CNC(=O)N2CCC3(CC2)CN(Cc2ccccc2)c2ccccc23)cc1 | 55 µM | > 1000 µM | 59.4 µM | – | – | –
10.2 µM | 0.227 µM | 45 | – | Active | Not Active | O=C(NO)c1ccc(CC(=O)N2CCC3(CC2)CN(Cc2ccccc2)c2ccccc23)cc1 | > 1000 µM | 54 µM | – | 13.8 µM | Active | IC50 (KYSE-520 cell line): 33.8 µM; Activity (NB-4 [5]): Active
